What was measured:
[1] = biological target: NAD(P)H dehydrogenase [quinone] 1 (Homo sapiens) (UniProt P15559)
Description: Increased quinone reductase specific activity

physchem = conditions: octanol/water
Description: Partition coefficient (logP)

Sequence of NAD(P)H dehydrogenase [quinone] 1 (Homo sapiens) (P15559 whole entry): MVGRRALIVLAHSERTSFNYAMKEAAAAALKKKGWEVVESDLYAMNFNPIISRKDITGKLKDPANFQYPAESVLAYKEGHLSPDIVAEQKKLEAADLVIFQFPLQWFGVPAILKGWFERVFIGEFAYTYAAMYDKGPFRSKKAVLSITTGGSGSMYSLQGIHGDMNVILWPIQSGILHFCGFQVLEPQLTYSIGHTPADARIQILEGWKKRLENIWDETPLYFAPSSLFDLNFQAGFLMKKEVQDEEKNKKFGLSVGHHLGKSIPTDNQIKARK

`S=c1sscc1-c1ccccc1` gave a Log CDQR [1] of 0.301.

With `COc1ccc(-c2cc(=S)ss2)cc1` the Log CDQR [1] was 1.25.

`CC(C)(C)c1cc(=S)ss1` gave a Log CDQR [1] of 0.699 and a logP (physchem) of 3.25.

For `S=c1ssc2c1CCCCCCCC2`, the Log CDQR [1] was -0.602 and the logP (physchem) was 2.53.

Compound `Cc1cssc1=S` has a Log CDQR [1] of 1.08.

`O=C(O)c1cssc1=S` showed a Log CDQR [1] of 1.38 and a logP (physchem) of 1.33.

For `NC(=O)c1cc(=S)ss1`, the Log CDQR [1] was 1.3 and the logP (physchem) was 0.01.

Work on `O=C(O)c1cc(=S)ss1` yielded a Log CDQR [1] of 1.9 and a logP (physchem) of 1.05.

For `CCc1cc(=S)ss1`, the Log CDQR [1] was 0.903.

For `COc1ccc(-c2ssc(=S)c2C)cc1`, the Log CDQR [1] was 1.58.

Work on `Cc1cc(=S)ss1` yielded a Log CDQR [1] of 1.23 and a logP (physchem) of 1.85.

Compound `S=c1ccss1` has a Log CDQR [1] of 0.176.

Compound `Cc1c(-c2cnccn2)ssc1=S` [OLTIPRAZ] has a Log CDQR [1] of 1.34 and a logP (physchem) of 2.79.

In the case of `NC(=O)c1cssc1=S`, the Log CDQR [1] is reported as 1.66 and the logP (physchem) is reported as 0.3.

Work on `S=C1CC(c2cc(=S)ss2)SS1` (configuration not stated) yielded a Log CDQR [1] of 0.342 and a logP (physchem) of 1.8.

Work on `CCc1cssc1=S` yielded a Log CDQR [1] of 0.903.

Compound `S=c1cc(-c2ccccc2)ss1` has a Log CDQR [1] of 1.3.

In the case of `Cc1ssc(=S)c1C`, the Log CDQR [1] is reported as 1.34.

— ChEMBL document CHEMBL1141899, “QSAR studies on 1,2-dithiole-3-thiones: modeling of lipophilicity, quinone reductase specific activity, and production of growth hormone” (Bioorg Med Chem Lett, 2005)
